Results on nine molecules are retold here after PubChem BioAssay (NCI).

Each structure is given as a SMILES string. Values joined by “and” are separate entries in the source; they are usually repeats but may differ in a detail not shown here. Equal entries are not always repeated.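 Interpolation was linear, between the two tested concentrations surrounding the appropriate level; five concentrations were tested over 48 hours in 96-well plates. Abbreviation: GI50, concentration required for 50% inhibition of growth. The concentration for full growth arrest is given as TGI.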

Some test systems named below: NCI/ADR-RES ovarian; CCRF-CEM leukemia; PC-3 prostate; RXF 393 renal; SW-620 colon; T-47D breast; NCI-H522 lung; BT-549 breast.
Holding throughout (assay): NCI-60 cell line screen, 48 h

Take `NC(=O)c1c(NC(=O)c2cccc(C(F)(F)F)c2)sc2c1CCC(=O)C2`: the GI50 was 0.528 µM in the assay with NCI/ADR-RES ovarian; 0.163 µM with CCRF-CEM leukemia; 0.218 µM with PC-3 prostate; 0.352 µM with RXF 393 renal; 0.234 µM with SW-620 colon; 0.274 µM in the assay on T-47D breast. Moreover, the GI50 was 0.299 µM in the assay with NCI-H522 lung and 0.352 µM with BT-549 breast. In addition, the TGI in the assay on NCI/ADR-RES ovarian was 7.69 µM; with PC-3 prostate, 2.1 µM; with RXF 393 renal it was 2.92 µM; with SW-620 colon it was 1.62 µM; in the assay on NCI-H522 lung, 1.62 µM; in the assay on BT-549 breast it was 9.08 µM.

Regarding `CC(=O)OC1Oc2cc(C)c(C)cc2-c2oc(=O)c(-c3ccccc3)cc21` (centres undefined), the GI50 in the assay with NCI/ADR-RES ovarian is 0.213 µM; in the assay with CCRF-CEM leukemia it was 0.364 µM; in the assay on PC-3 prostate it was 0.435 µM; in the assay on RXF 393 renal it was 0.343 µM; in the assay on SW-620 colon it was 0.242 µM; with T-47D breast it was 0.352 µM. Further, the GI50 is 0.177 µM in the assay on NCI-H522 lung and 7.34 µM in the assay on BT-549 breast. The TGI in the assay with NCI/ADR-RES ovarian was 0.908 µM; in the assay with CCRF-CEM leukemia it was greater than 100 µM; in the assay with PC-3 prostate it was greater than 100 µM; with RXF 393 renal, 37.1 µM; in the assay on SW-620 colon, greater than 100 µM; with T-47D breast, greater than 68.1 µM. The TGI was 4.81 µM in the assay with NCI-H522 lung and greater than 31.9 µM with BT-549 breast.

Take `CCOC(=O)/N=c1\ssc(Cl)c1Cl`: the GI50 is 4.11 µM in the assay with NCI/ADR-RES ovarian; 0.646 µM in the assay with CCRF-CEM leukemia; 15.8 µM in the assay with PC-3 prostate; 3.01 µM with RXF 393 renal; 0.599 µM in the assay with SW-620 colon; 17.2 µM in the assay with T-47D breast. Also, the GI50 was 3.87 µM in the assay on NCI-H522 lung and 2.77 µM with BT-549 breast. The TGI in the assay with NCI/ADR-RES ovarian is greater than 100 µM; in the assay on CCRF-CEM leukemia, greater than 100 µM; in the assay on PC-3 prostate, 36 µM; in the assay on RXF 393 renal, 10.6 µM; in the assay on SW-620 colon it was 14.7 µM; in the assay with T-47D breast it was 42.6 µM. Moreover, the TGI in the assay on NCI-H522 lung came to 95.9 µM; in the assay with BT-549 breast, 7.21 µM.

`CC(=O)c1c(Nc2ccc(F)c(F)c2F)[nH]c2c(F)cc(F)cc2c1=O`: the GI50 in the assay with NCI/ADR-RES ovarian was 0.322 µM; in the assay on CCRF-CEM leukemia it was 0.368 µM; with PC-3 prostate, 0.252 µM; in the assay on RXF 393 renal, 0.3 µM; in the assay on SW-620 colon, 0.346 µM; in the assay on T-47D breast, 0.25 µM. Also, the GI50 with NCI-H522 lung was 0.285 µM; in the assay with BT-549 breast, 0.335 µM. Also, the TGI is 34.5 µM in the assay on NCI/ADR-RES ovarian; greater than 100 µM with CCRF-CEM leukemia; 1.33 µM in the assay on PC-3 prostate; 2.41 µM in the assay with RXF 393 renal; 18.7 µM with SW-620 colon; 16.6 µM in the assay with NCI-H522 lung. In the assay on BT-549 breast, the TGI was 5.76 µM.

In the case of `COc1ccc2nc3cc(Cl)ccc3c(Nc3ccc(O)c(CN4CCCC4)c3)c2c1`, the GI50 in the assay with NCI/ADR-RES ovarian is 1.93 µM; in the assay on CCRF-CEM leukemia it was 3.06 µM; in the assay with PC-3 prostate, 3.28 µM; with RXF 393 renal, 1.7 µM; with SW-620 colon, 1.94 µM; with T-47D breast, 2.18 µM. The figures for the GI50 in the assay with NCI-H522 lung and with BT-549 breast were 1.67 µM and 14.5 µM, respectively. For the same molecule, the TGI was found to be 4.54 µM in the assay on NCI/ADR-RES ovarian; 14.6 µM with CCRF-CEM leukemia; 11 µM in the assay on PC-3 prostate; 3.17 µM in the assay on RXF 393 renal; 6.19 µM in the assay with SW-620 colon; 6.46 µM in the assay with T-47D breast. Also, the TGI in the assay with NCI-H522 lung is 3.79 µM; in the assay with BT-549 breast, 28.1 µM.

`CN1CCN(CCCOc2ccc3ncnc(Nc4ccc(Oc5cccc(F)c5)c(Cl)c4)c3c2)CC1`: the GI50 in the assay with NCI/ADR-RES ovarian is 1.83 µM; with CCRF-CEM leukemia, 1.97 µM; in the assay with PC-3 prostate, 1.68 µM; in the assay on RXF 393 renal, 1.56 µM; in the assay with SW-620 colon it was 1.68 µM; in the assay on T-47D breast, 1.34 µM. Further, the GI50 in the assay on NCI-H522 lung was 1.23 µM; with BT-549 breast, 1.7 µM. The TGI in the assay on NCI/ADR-RES ovarian came to 4.79 µM; in the assay with CCRF-CEM leukemia, 8.21 µM; in the assay with PC-3 prostate it was 3.45 µM; in the assay on RXF 393 renal, 3.1 µM; in the assay with SW-620 colon, 3.25 µM; with T-47D breast, 4.35 µM. For the same molecule, the values for the TGI with NCI-H522 lung and in the assay with BT-549 breast were 3.14 µM and 3.3 µM, respectively.

As for `COc1ccc(-c2nn(-c3cccc(Cl)c3)cc2/C=C2\C(=N)N(c3ccccc3)N=C2N)cc1`, the GI50 in the assay with NCI/ADR-RES ovarian was 1.32 µM; in the assay with CCRF-CEM leukemia, 0.655 µM; in the assay on PC-3 prostate it was 0.601 µM; in the assay with RXF 393 renal, 17.5 µM; in the assay with SW-620 colon, 0.399 µM; with T-47D breast it was 1.81 µM. The GI50 is 0.916 µM with NCI-H522 lung and 5.75 µM in the assay with BT-549 breast. Besides, the TGI in the assay on NCI/ADR-RES ovarian was greater than 48.9 µM; in the assay with CCRF-CEM leukemia, greater than 58.7 µM; in the assay with PC-3 prostate, greater than 59 µM; in the assay with RXF 393 renal, greater than 80.6 µM; with SW-620 colon it was 20.7 µM; in the assay on T-47D breast it was greater than 100 µM. In addition, the TGI is 23 µM in the assay on NCI-H522 lung and 39.2 µM with BT-549 breast.

With `CCCC(=O)Nc1cn(COC)c(C(=O)N2C[C@H]3C[C@@]34C2=CC(=O)c2[nH]cc(C)c24)n1`, the GI50 in the assay with NCI/ADR-RES ovarian is 12 µM; in the assay with CCRF-CEM leukemia, 0.555 µM; in the assay with RXF 393 renal, 3.05 µM; with SW-620 colon, 13.4 µM; in the assay on T-47D breast, 2.91 µM; with NCI-H522 lung, 1.84 µM. Further, in the assay on BT-549 breast, the GI50 is 5.51 µM. Moreover, the TGI in the assay on NCI/ADR-RES ovarian was 15.8 µM and 43.6 µM; in the assay with PC-3 prostate it was 50 µM and > 100 µM; with RXF 393 renal it was 26.9 µM and 8.82 µM; with SW-620 colon it was 50 µM and > 100 µM; in the assay on T-47D breast, 25.4 µM and 34.8 µM; in the assay with NCI-H522 lung it was 8.62 µM and 14.7 µM. For the same molecule, in the assay with BT-549 breast, the TGI is 43.1 µM and 58.9 µM.

Take `COc1ccc(-c2nn(-c3cccc(Cl)c3)cc2-c2cc(-c3cccs3)no2)cc1`: the GI50 in the assay on NCI/ADR-RES ovarian is 4.01 µM; in the assay on CCRF-CEM leukemia, 3.84 µM; in the assay with PC-3 prostate it was 3.2 µM; in the assay with RXF 393 renal, 3.49 µM; with SW-620 colon, 4.35 µM; in the assay on T-47D breast it was 3.86 µM. The GI50 in the assay on NCI-H522 lung is 4.27 µM; with BT-549 breast, 4.99 µM. Also, the TGI is 38.1 µM in the assay with NCI/ADR-RES ovarian; greater than 100 µM in the assay on CCRF-CEM leukemia; 36.9 µM with PC-3 prostate; 20.1 µM in the assay on RXF 393 renal; 22.6 µM in the assay with SW-620 colon; 25.3 µM in the assay on T-47D breast. Moreover, the TGI in the assay on NCI-H522 lung was 18.4 µM; in the assay on BT-549 breast, 21.3 µM.
